Measurements reported in patent US11053242B2, “[9,10-dimethoxy-3-(2-methylpropyl)-1H,2H,3H,4H,6H,7H,11BH-pyrido-[2,1-a]isoquinolin-2-yl]methanol and compounds, compositions and methods relating thereto” (Neurocrine Biosciences, Inc., priority 2015, dated 2021).

Biological target: VMAT2 (human platelet homogenate) (Homo sapiens (Human), UniProt Q05940)
Assay: Human VMAT2 Ki, slightly modified competition binding procedure (Table 11);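 also: competition binding with 90 min incubation at 25 °C, after which filter-retained radioligand was measured by scintillation counting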
Conditions: 10 nM 3H-dihydrotetrabenazine
Procedure: Following incubation at 25° C. for 90 minutes, bound radioligand was collected by rapid filtration onto GF/B glass fiber filters using a Unifilter-96 Harvester (PerkinElmer). Filter plates were pre-treated with 0.1% polyethylenimine and allowed to dry overnight, and following harvesting the filter plates were washed with 800 d VMAT2 binding buffer. Bound radioligand was quantified by scintillation counting using a Topcount NXT (PerkinElmer).

VMAT2 (human platelet homogenate), sequence (Q05940 whole entry): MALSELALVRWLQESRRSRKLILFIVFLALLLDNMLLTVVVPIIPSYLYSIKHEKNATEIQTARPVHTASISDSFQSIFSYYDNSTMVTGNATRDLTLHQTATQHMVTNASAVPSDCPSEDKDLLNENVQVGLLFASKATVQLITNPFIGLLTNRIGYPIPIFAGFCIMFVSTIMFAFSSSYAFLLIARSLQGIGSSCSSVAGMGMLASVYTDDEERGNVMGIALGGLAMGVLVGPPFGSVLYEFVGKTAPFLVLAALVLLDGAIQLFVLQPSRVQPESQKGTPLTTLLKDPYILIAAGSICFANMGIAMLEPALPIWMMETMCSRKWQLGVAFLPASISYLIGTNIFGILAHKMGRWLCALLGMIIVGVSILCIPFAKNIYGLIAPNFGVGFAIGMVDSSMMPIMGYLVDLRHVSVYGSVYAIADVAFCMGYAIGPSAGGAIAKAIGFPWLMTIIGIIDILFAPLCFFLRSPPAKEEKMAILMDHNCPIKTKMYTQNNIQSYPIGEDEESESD

Row | SMILES | Ki [nM]
1 | COc1cc2c(cc1OC)[C@H]1C[C@@H](COC(=O)[C@@H]3CCCN(Cc4ccccc4)C3)[C@H](CC(C)C)CN1CC2 [Compound 2-11, [(2R,3S,11bR)-9,10-dimethoxy-3-(2-methylpropyl)-1H,2H,3H,4H,6H,7H,11bH-pyrido[2,1-a]isoquinolin-2-yl]methyl (3R)-1-benzylpiperidine-3-carboxylate] | < 10
2 | COc1cc2c(cc1OC)[C@H]1C[C@@H](COCC3CCNC3)[C@H](CC(C)C)CN1CC2 (stereo partly drawn) [Compound 10-6, 3-({[(2R,3S,11bR)-9,10-dimethoxy-3-(2-methylpropyl)-1H,2H,3H,4H,6H,7H,11bH-pyrido[2,1-a]isoquinolin-2-yl]methoxy}methyl)pyrrolidine] | < 10
3 | COc1cc2c(cc1OC)[C@H]1C[C@@H](COC(=O)CCn3nccc3C)[C@H](CC(C)C)CN1CC2 [Compound 2-29, [(2R,3S,11bR)-9,10-dimethoxy-3-(2-methylpropyl)-1H,2H,3H,4H,6H,7H,11bH-pyrido[2,1-a]isoquinolin-2-yl]methyl 3-(5-methyl-1H-pyrazol-1-yl)propanoate] | 10 to 500
4 | COc1cc2c(cc1OC)[C@H]1C[C@@H](COC(=O)N3C[C@H](C)NC[C@H]3C)[C@H](CC(C)C)CN1CC2 [Compound 6-2, [(2R,3S,11bR)-9,10-dimethoxy-3-(2-methylpropyl)-1H,2H,3H,4H,6H,7H,11bH-pyrido[2,1-a]isoquinolin-2-yl]methyl (2R,5S)-2,5-dimethylpiperazine-1-carboxylate] | < 10
5 | COc1cc2c(cc1OC)[C@H]1C[C@@H](COC(=O)[C@H](N)c3ccc(C(F)(F)F)cc3)[C@H](CC(C)C)CN1CC2 [Compound 4-30, [(2R,3S,11bR)-9,10-dimethoxy-3-(2-methylpropyl)-1H,2H,3H,4H,6H,7H,11bH-pyrido[2,1-a]isoquinolin-2-yl]methyl (2R)-2-amino-2-[4-(trifluoromethyl)phenyl]acetate] | 10 to 500
6 | COc1cc2c(cc1OC)[C@H]1C[C@@H](COCC3CCNCC3)[C@H](CC(C)C)CN1CC2 [Compound 10-5, 4-({[(2R,3S,11bR)-9,10-dimethoxy-3-(2-methylpropyl)-1H,2H,3H,4H,6H,7H,11bH-pyrido[2,1-a]isoquinolin-2-yl]methoxy}methyl)piperidine] | 10 to 500
7 | COc1cc2c(cc1OC)[C@H]1C[C@@H](COC(=O)N3CCN(C(C)C)CC3)[C@H](CC(C)C)CN1CC2 [Compound 5-31, [(2R,3S,11bR)-9,10-dimethoxy-3-(2-methylpropyl)-1H,2H,3H,4H,6H,7H,11bH-pyrido[2,1-a]isoquinolin-2-yl]methyl 4-(propan-2-yl)piperazine-1-carboxylate] | < 10
8 | COc1cc2c(cc1OC)[C@H]1C[C@@H](COC(=O)C3COCCN3)[C@H](CC(C)C)CN1CC2 (stereo partly drawn) [Compound 4-32, [(2R,3S,11bR)-9,10-dimethoxy-3-(2-methylpropyl)-1H,2H,3H,4H,6H,7H,11bH-pyrido[2,1-a]isoquinolin-2-yl]methyl morpholine-3-carboxylate] | 10 to 500
9 | COc1cc2c(cc1OC)[C@H]1C[C@@H](COC(=O)N3C[C@@H](C)O[C@@H](C)C3)[C@H](CC(C)C)CN1CC2 [Compound 5-53, [(2R,3S,11bR)-9,10-dimethoxy-3-(2-methylpropyl)-1H,2H,3H,4H,6H,7H,11bH-pyrido[2,1-a]isoquinolin-2-yl]methyl (2R,6S)-2,6-dimethylmorpholine-4-carboxylate] | 10 to 500
10 | COc1cc2c(cc1OC)[C@H]1C[C@@H](COC(=O)CCN3CCNCC3)[C@H](CC(C)C)CN1CC2 [Compound 4-37, [(2R,3S,11bR)-9,10-dimethoxy-3-(2-methylpropyl)-1H,2H,3H,4H,6H,7H,11bH-pyrido[2,1-a]isoquinolin-2-yl]methyl 3-(piperazin-1-yl)propanoate] | < 10
11 | COc1cc2c(cc1OC)[C@H]1C[C@@H](COC(=O)N[C@H](C)C(=O)O)[C@H](CC(C)C)CN1CC2 [Compound 5-45, (2R)-2-[({[(2R,3S,11bR)-9,10-dimethoxy-3-(2-methylpropyl)-1H,2H,3H,4H,6H,7H,11bH-pyrido[2,1-a]isoquinolin-2-yl]methoxy}carbonyl)amino]propanoic acid] | > 500
